From patent publication US12492163B2, “9H-fluorene derivatives or their pharmaceutically acceptable salts” (priority 2020, dated 2025)

Columns and labels:
mGAT4 = mGAT4 (Mus musculus (Mouse), UniProt P31650); assay: [3H]GABA uptake inhibition, mGAT4 in HEK293 cells; format: cell-based; conditions: for pIC50 (+/−SEM) mGAT4 / IC50: GABA reuptake; for percentage of [3H]GABA reuptake retained, mGAT4: inhibitor at 100 μM, remaining reuptake; for IC50: read-out: pIC50 (+/−SEM) mGAT4 (converted)
Experimental: (§1) Exemplary compounds according to the invention were screened at the Ludwig-Maximilian University of Munich to determine the inhibitory ability towards four mouse GAT transporters (mGAT1-mGAT4). […] The biological material was stably transfected human embryonic kidney HEK293 cells, expressing genes to the appropriate transporters. The generated radioactivity was measured with a liquid scintillation counter. […] These determinations were made according to the procedure described in detail in A. Kragler, G. Höfner, K. T. Wanner, Novel parent structures for inhibitors of the murine GABA transporters mGAT3 and mGAT4, Eur. J. Pharmacol. 519 (2005) 43-47.

[1] = biological target: human plasma butyrylcholinesterase (hBuChE) (Homo sapiens (Human), UniProt P06276); assay: Ellman's test, inhibition of human plasma butyrylcholinesterase; format: biochemical; conditions: for inhibition at 1 µM: 1 μM inhibitor concentration, read-out: hBuChE % inh
Chain of human plasma butyrylcholinesterase (hBuChE) (P06276 29-602): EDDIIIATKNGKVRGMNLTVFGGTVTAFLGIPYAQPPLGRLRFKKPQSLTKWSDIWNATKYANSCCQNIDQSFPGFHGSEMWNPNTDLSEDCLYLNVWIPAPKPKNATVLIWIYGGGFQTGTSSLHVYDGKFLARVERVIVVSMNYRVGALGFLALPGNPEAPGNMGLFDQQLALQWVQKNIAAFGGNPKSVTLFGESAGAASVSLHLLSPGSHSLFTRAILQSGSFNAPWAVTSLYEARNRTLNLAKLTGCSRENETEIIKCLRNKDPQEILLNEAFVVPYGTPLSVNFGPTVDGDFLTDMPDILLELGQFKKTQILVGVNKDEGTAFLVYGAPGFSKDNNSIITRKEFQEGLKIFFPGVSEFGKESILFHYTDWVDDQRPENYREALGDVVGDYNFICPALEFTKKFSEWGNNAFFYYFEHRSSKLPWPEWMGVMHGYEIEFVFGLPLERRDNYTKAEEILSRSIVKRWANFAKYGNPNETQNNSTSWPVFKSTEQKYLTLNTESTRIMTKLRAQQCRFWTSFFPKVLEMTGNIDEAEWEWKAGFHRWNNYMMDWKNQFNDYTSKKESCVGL
Experimental: (§2) The spectrophotometric Ellman's test [Ellman et al.] modified for assays in 96-well plates was used to test the activity. Reagents: 5,5′-dithiobis-(2-nitrobenzoic acid) (DTNB), eqBuChE and butyrylthiocholine iodide (BTC) were purchased from Sigma-Aldrich (Steinheim, Germany). hBuChE was from Vivonics (Bedford, MA, USA). The enzymes were prepared by dissolving in demineralized water to a concentration of 0.384 U/ml. Stock solutions of test compounds were prepared by dissolving in DMSO to a concentration of 0.0034 M. They were then diluted with water to obtain the appropriate concentrations in the wells. In the first step of the test, 25 μl of test compound (or DMSO/water mixture at the appropriate ratio for blank samples) was incubated in 0.1 M phosphate buffer (200 μl, pH=8.0) with DTNB (20 μl; 0.0025M) and with the appropriate enzyme (20 μl; eqBuChE or hBuChE) at 25° C. (animal enzyme) or 36° C. (human enzyme). After a 5 minutes incubation period, 20 μl of BTC solution (0.00375 M) was added. After another 5 minutes, the changes in absorbance of the solutions were measured at 412 nm using a multifunctional microplate reader (EnSpire Multimode; PerkinElmer; Waltham, MA, USA). All compounds were tested at a screening concentration of 10 μM (eqBuChE) or 1 μM (hBuChE). The percentage of enzyme inhibition was calculated from the equation 100-(S/B)×100, where S and B were the enzymatic activity in the test sample well and in the well without sample, respectively. […] All reactions were performed in triplicate. IC50 values were calculated using non-linear regression (GraphPad Prism 5 [GraphPad Software, San Diego, CA, USA 5.00]) for the percentage of enzyme inhibition against the inhibitor concentration used. Tacrine and donepezil were used as reference compounds.

[2] = biological target: Recombinant human Aβ1-42 peptide (Homo sapiens (Human), UniProt P05067); assay: Thioflavin T test, antiaggregation activity against beta-amyloid; format: biochemical; conditions: 10 μM test compound, 1.5 μM Aβ1-42; read-out: inh. Aβ aggr. % inh
Chain of Recombinant human Aβ1-42 peptide (P05067 672-713): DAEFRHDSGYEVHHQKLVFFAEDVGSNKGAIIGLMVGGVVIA
Experimental: The thioflavin T test [Levine III] was used for the determinations. Recombinant human Aβ1-42 peptide (HFIP pretreated, Merck Millipore, Darmstadt, Germany) was dissolved in DMSO to form a 75 μM stock solution. The solution was further diluted in HEPES buffer (150 mM HEPES, pH 7.4, 150 mM NaCl) to a concentration of 7.5 μM. Then, the Aβ1-42 solution was added to the test compounds (black 96-well plates were used) and diluted with thioflavin T solution (10 μM final concentration). The final mixture contained 1.5 μM Aβ1-42, 10 μM test compound, and 3% of DMSO. Fluorescence was measured every 300 s (excitation wavelength was 440 nm, emission wavelength was 490 nm) with continuous mixing between measurements. A multifunction microplate reader (Synergy H4; BioTek Instruments, Inc., Winooski, VT, USA) was used to measure the fluorescence. Fluorescence started increasing after approximately 4 hours, plateaued after 20 hours and remained virtually unchanged for the next 28 hours of incubation. The plateau-phase fluorescence intensities (in the presence and absence of test compounds) were averaged and the mean fluorescence values for the respective wells at t=0 h were subtracted from them. […] IC50 values were calculated using non-linear regression (GraphPad Prism 5 [GraphPad Software, San Diego, CA, USA 5.00]) for the percentage of aggregation inhibition against the inhibitor concentration used.

mGAT3 = mGAT3 (Mus musculus (Mouse), UniProt P31649); assay: [3H]GABA uptake inhibition, mGAT3 in HEK293 cells; format: cell-based; conditions: for percentage of [3H]GABA reuptake retained, mGAT3: inhibitor at 100 μM, remaining reuptake
Chain of mGAT3 (P31649 whole entry): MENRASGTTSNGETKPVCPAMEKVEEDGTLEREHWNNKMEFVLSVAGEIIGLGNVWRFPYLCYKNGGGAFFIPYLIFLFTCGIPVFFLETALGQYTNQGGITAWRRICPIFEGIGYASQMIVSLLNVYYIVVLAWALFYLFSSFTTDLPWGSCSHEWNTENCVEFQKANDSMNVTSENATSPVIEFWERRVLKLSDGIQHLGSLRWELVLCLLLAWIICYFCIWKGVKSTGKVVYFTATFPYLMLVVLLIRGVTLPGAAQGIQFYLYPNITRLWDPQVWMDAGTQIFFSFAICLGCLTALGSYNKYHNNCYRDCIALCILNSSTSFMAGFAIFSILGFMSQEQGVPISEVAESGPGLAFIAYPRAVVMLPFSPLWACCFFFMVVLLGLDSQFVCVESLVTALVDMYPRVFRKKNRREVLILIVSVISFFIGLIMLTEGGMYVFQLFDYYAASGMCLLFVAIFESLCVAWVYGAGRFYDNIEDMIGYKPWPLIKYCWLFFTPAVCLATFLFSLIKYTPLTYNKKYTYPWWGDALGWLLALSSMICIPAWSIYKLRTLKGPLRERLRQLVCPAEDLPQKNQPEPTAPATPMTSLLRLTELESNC
Experimental: as §1

mGAT1 = mGAT1 (Mus musculus (Mouse), UniProt P31648); assay: [3H]GABA uptake inhibition, mGAT1 in HEK293 cells; format: cell-based
Experimental: as §1

mGAT2 = mGAT2 (Mus musculus (Mouse), UniProt P31651); assay: [3H]GABA uptake inhibition, mGAT2 in HEK293 cells; format: cell-based; conditions: for pIC50 (+/−SEM) mGAT2 / IC50: GABA reuptake; for IC50: read-out: pIC50 (+/−SEM) mGAT2 (converted)
Chain of mGAT2 (P31651 whole entry): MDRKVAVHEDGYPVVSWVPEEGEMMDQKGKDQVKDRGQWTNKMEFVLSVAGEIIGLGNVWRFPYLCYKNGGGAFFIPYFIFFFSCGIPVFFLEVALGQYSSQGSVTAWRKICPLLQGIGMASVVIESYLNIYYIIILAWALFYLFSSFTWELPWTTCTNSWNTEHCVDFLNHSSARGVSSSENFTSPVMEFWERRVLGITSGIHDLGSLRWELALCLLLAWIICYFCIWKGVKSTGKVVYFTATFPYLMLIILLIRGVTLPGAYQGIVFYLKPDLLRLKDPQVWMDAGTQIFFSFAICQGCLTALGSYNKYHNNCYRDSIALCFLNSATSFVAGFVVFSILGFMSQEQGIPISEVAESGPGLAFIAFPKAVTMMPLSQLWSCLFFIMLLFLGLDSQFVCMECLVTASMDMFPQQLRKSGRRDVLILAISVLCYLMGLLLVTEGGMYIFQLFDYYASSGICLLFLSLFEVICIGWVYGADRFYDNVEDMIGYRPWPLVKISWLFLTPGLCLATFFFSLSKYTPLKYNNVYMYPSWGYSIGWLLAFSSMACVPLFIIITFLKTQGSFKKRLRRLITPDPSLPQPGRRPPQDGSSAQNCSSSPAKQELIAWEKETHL
Experimental: as §1

[3] = biological target: human recombinant beta-secretase (hBACE1) (Homo sapiens (Human), UniProt P56817); assay: FRET assay, inhibition of human recombinant beta-secretase; format: biochemical; conditions: for IC50: read-out: hBACE-1 IC50; for inhibition at 50 µM: 50 μM inhibitor concentration, read-out: hBACE-1 % inh
Chain of human recombinant beta-secretase (hBACE1) (P56817 46-501): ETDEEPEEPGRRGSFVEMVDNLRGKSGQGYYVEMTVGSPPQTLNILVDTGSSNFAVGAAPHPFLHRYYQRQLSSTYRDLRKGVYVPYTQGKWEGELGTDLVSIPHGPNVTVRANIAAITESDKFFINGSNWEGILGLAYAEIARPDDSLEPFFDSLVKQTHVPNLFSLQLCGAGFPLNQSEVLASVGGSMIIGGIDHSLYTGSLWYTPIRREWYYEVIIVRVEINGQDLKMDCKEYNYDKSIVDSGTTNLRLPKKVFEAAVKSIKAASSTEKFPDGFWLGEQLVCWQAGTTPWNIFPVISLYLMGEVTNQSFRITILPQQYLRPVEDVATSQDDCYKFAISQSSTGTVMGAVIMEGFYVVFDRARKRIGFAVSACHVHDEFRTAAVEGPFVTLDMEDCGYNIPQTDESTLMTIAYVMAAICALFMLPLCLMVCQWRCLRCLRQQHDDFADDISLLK
Experimental: The FRET assay [Vassar, et al.] was used to test activity using 384-well black plates and a microplate reader (EnSpire Multimode; PerkinElmer; Waltham, MA, USA). The test was purchased from Life Technologies Polska Sp. z o.o. (Warsaw, Poland). […] Stock solutions of test compounds were prepared in DMSO and then further diluted with assay buffer (50 mM sodium acetate; pH 4.5) to the appropriate concentrations in the wells. In the first step of the test, 10 μl of the substrate (Rh-[…] quencher, based on the so-called Swedish APP mutation) was mixed with 10 μl of the test compound (or assay buffer; for blank sample). The enzyme reaction was initiated by adding 10 μl of enzyme (hBACE1, 1 U/ml). The reaction mixture was incubated at 25° C. for 60 minutes, then 10 μL of Stop solution (2.5 M sodium acetate) was added. After stopping the reaction, fluorescence was measured at 576 nm. The percentage of enzyme inhibition was calculated from the formula [1−(S60−S0)/(C60−C0)]×100, where S0 and S60 are the fluorescence of the test sample (containing the enzyme, substrate and test compound) at the start of the reaction and after 60 minutes, respectively, whereas C0 and C60 were analogous fluorescence intensities in the blank samples (containing enzyme, substrate and buffer). All test compounds were tested at a concentration of 50 μM in triplicate. […] A BACE1 IV inhibitor (Calbiochem, Merck; Nottingham, UK) [Stachel et al.] was used as a reference compound. […] IC50 values for all test compounds were calculated using non-linear regression (GraphPad Prism 5 [GraphPad Software, San Diego, CA, USA 5.00]) for the percentage of enzyme inhibition against the inhibitor concentration used.

[4] = biological target: horse plasma butyrylcholinesterase (eqBuChE) (Equus caballus (Horse), UniProt P81908); assay: Ellman's test, inhibition of horse plasma butyrylcholinesterase; format: biochemical
Chain of horse plasma butyrylcholinesterase (eqBuChE) (P81908 whole entry): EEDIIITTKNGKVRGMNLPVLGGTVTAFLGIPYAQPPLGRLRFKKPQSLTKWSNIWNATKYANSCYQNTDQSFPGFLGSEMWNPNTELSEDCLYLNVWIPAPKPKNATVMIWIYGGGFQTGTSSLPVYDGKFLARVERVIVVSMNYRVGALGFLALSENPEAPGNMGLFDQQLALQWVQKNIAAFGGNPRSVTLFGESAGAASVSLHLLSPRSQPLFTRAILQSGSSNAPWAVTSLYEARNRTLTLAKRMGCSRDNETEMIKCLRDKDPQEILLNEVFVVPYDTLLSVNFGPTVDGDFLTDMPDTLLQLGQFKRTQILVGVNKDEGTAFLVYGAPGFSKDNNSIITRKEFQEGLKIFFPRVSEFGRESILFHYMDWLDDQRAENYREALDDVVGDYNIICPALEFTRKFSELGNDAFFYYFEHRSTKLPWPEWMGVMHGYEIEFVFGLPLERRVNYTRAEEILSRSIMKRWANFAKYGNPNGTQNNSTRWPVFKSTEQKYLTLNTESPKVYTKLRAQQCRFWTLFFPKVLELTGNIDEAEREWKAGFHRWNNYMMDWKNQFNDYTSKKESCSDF
Experimental: as §2

[5] = inhibitor at 100 μM, remaining reuptake

Chain of mGAT4 (P31650 whole entry): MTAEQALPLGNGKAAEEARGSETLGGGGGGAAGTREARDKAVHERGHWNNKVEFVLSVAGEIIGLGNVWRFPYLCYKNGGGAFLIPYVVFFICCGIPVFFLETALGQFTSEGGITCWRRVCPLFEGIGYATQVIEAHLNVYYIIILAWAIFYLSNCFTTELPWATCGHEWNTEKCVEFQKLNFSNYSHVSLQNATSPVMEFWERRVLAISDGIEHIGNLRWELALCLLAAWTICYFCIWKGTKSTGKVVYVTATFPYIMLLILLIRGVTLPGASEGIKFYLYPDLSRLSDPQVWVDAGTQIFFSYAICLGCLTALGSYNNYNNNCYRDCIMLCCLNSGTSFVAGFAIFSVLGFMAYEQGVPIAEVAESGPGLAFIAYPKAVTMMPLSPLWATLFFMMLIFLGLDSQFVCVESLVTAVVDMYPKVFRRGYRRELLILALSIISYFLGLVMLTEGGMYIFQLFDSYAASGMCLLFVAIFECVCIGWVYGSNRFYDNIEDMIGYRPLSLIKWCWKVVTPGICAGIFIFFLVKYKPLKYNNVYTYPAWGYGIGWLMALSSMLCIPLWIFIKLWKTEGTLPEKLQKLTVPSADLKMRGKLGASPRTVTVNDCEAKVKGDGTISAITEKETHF

Compound | pIC50 (+/−SEM) mGAT4 (mGAT4) | IC50 [1] [µM] | inhibition at 10 µM [2] [%] | pIC50 (+/−SEM) mGAT3 (mGAT3; GABA reuptake) | pIC50 (+/−SEM) mGAT1 (mGAT1; GABA reuptake) | pIC50 (+/−SEM) mGAT2 (mGAT2) | IC50 [3] [µM] | IC50 [4] [µM] | percentage of [3H]GABA reuptake retained, mGAT4 (mGAT4) [%] | inhibition at 1 µM [1] [%] | inhibition at 10 µM ([4]; 10 μM inhibitor concentration, read-out: eqBuChE percent inhibition of enzyme) [%] | percentage of [3H]GABA reuptake retained, mGAT3 (mGAT3) [%] | percentage of [3H]GABA reuptake retained, mGAT1 (mGAT1; [5]) [%] | IC50 (mGAT4) [µM] | IC50 (mGAT2) [µM] | percentage of [3H]GABA reuptake retained, mGAT2 (mGAT2; [5]) [%] | inhibition at 50 µM [3] [%] | IC50 (mGAT3; GABA reuptake, read-out: pIC50 (+/−SEM) mGAT3 (converted)) [µM] | IC50 (mGAT1; GABA reuptake, read-out: pIC50 (+/−SEM) mGAT1 (converted)) [µM]
O[C@H](CNCc1ccccc1)[C@H](Cc1ccccc1)NC1c2ccccc2-c2ccccc21 [Compound 1, (2R,3S)-3-((9H-fluoren-9-yl)amino)-1-(benzylamino)-4-phenylbutan-2-ol] | 5.11 +/− 0.01 | 0.196 | 82.5 | 5.15+/− 0.07 | 4.96 | 5.01 +/− 0.08 | 10.1 | 0.627 |  |  |  |  |  |  |  |  |  |  | 
CC(C)(C)c1cccc(CNC[C@@H](O)[C@H](Cc2ccccc2)NC2c3ccccc3-c3ccccc32)c1 [Compound 3, (2R,3S)-3-((9H-fluoren-9-yl)amino)-1-((3-(tert-butyl)benzyl)amino)-4-phenylbutan-2-ol] |  |  | 90.9 | 5.05 +/− 0.05 | 4.83 | 4.58 | 6.35 |  | 56 | 68 | 78.2 |  |  |  |  |  |  |  | 
COc1cccc(CNC[C@H](O)[C@H](Cc2ccccc2)NC2c3ccccc3-c3ccccc32)c1 [Compound 6, (2S,3S)-3-((9H-fluoren-9-yl)amino)-1-((3-methoxybenzyl)amino)-4-phenylbutan-2-ol] | 5.15 +/− 0.034 |  | 93.3 |  | 5.15 | 4.92 +/− 0.14 | 2.25 | 2.2 |  | 67.7 |  | 66 |  |  |  |  |  |  | 
COc1ccccc1CNC[C@H](O)[C@H](Cc1ccccc1)NC1c2ccccc2-c2ccccc21 [Compound 7, (2S,3S)-3-((9H-fluoren-9-yl)amino)-1-((2-methoxybenzyl)amino)-4-phenylbutan-2-ol] | 5.21 +/− 0.04 | 0.268 | 86.7 |  | 5.20 | 4.88 +/− 0.07 | 7.23 | 0.278 |  |  |  | 65 |  |  |  |  |  |  | 
O[C@@H](CNCC1CCCCC1)[C@H](Cc1ccccc1)NC1c2ccccc2-c2ccccc21 [Compound 11, (2S,3S)-3-((9H-fluoren-9-yl)amino)-1-((cyclohexylmethyl)amino)-4-phenylbutan-2-ol] |  |  | 78.6 | 4.94 |  | 4.97 | 8.6 | 0.955 | 59 | 76.5 |  |  | 54 |  |  |  |  |  | 
O=C(CC1c2ccccc2-c2ccccc21)N[C@@H](Cc1ccccc1)[C@@H](O)CNCc1ccccc1 [Compound 17, N-((2S,3S)-4-(benzylamino)-3-hydroxy-1-phenylbutan-2-yl)-2-(9H-fluorene-9-yl)acetamide] |  |  | 42.5 | 4.93 | 4.85 |  | 11.5 | 1.76 |  | 66.4 |  |  |  | 7.24 | 15.8 |  |  |  | 
CC(C)(C)c1ccc(CNC[C@H](O)[C@H](Cc2ccccc2)NC(=O)CC2c3ccccc3-c3ccccc32)cc1 [Compound 19, N-((2S,3S)-4-((4-(tert-butyl)benzyl)amino)-3-hydroxy-1-phenylbutan-2-yl)-2-(9H-fluoren-9-yl)acetamide] |  |  | 86.7 | 4.90 | 4.90 |  |  | 3.02 |  | 77.1 |  |  |  | 15.5 |  | 114 | 78.3 |  | 
COc1ccccc1CNC[C@H](O)[C@H](Cc1ccccc1)NC(=O)CC1c2ccccc2-c2ccccc21 [Compound 20, 2-(9H-fluorene-9-yl)-N-((2S,3S)-3-hydroxy-4-((2-methoxybenzyl)amino)-1-phenylbutan-2-yl)acetamide] |  |  | < 10 |  |  |  |  | 2.2 |  | 74.5 |  |  |  | 4.07 | 9.12 |  | 71.1 | 8.32 | 9.55
